Experimental data: patent publication US20250263396A1, “CRYSTALLINE FORMS OF 3-(5-(2-HYDROXY-2- METHYLPROPOXY)-6-METHYPYRAZIN-2-YL)-1H-INDOLE-7-CARBONITRILE” (NIDO BIOSCIENCES, INC., priority 2024, published 2025)
Read-outs that look alike come from different tables or passages of the source.

How the values were obtained:
physchem [1] = conditions: water, thermodynamic from solid, Approximate solubility
Experimental: Form P (5 mg, purity 100%) was weighed to a 2 mL glass vial. 20 μL aliquots of each solvent were added to dissolve the drug substance at 25 C. […] Vortex and sonication were applied to assist dissolution. Max. volume of each solvent added is 1 mL. For obtained suspensions (Exp. ID 1, 10 and 11) after addition of 1 mL solvent at 25° C., they were placed at 50° C. Approximate solubility was determined by visual observation.

[2] = Dry grinding simulation experiments; format: physicochemical; conditions: ground manually with mortar and pestle
Experimental: About 10 mg of Form P was ground manually with a mortar and a pestle for 1, 3 and 5 minutes.
About 10 mg of Form C was ground manually with a mortar and a pestle for 5 minutes.

[3] = cake dried under vacuum
Description: The cake of Form P was dried under vacuum at different temperatures to evaluate the chemical stability of dry cake.

[4] = 24 hours; for XRPD: residual solids; for pH: supernatant
Experimental: (§2) Non-milled Form P (10 mg, purity 100%) was weighed into a 20 mL glass vial. 5 mL of solubility medium was added. Obtained suspensions were stirred at 37° C. at 400 rpm and sampled at 24 hours. The samples were centrifuged at 37 C at 14,000 rpm for 5 min. Supernatants were analyzed by HPLC and pH meter for solubility and pH value, respectively. Residual solids (wet cakes) from the 24 hours samples were also characterized by XRPD to determine physical form.

[5] = wet cake in sealed bottle
Experimental: Wet cake chemical stability of Form P at 40° C., 50° C., 60° C. was evaluated.

[6] = Form change on heating, dehydration or desolvation (TGA, DSC, variable temperature XRPD); format: physicochemical; conditions: heated above 176° C. using milled Form P, variable temperature XRPD
Experimental: Relative stability of the anhydrates Form R and Form P was investigated by variable temperature XRPD and competitive equilibration experiments.
Relative stability of the anhydrates Form B, Form X, Form Y and Form C was investigated by variable temperature XRPD. Form B converted to Form X, Form Y and Form C after heating to 150° C., 176° C. and 180° C., respectively.

physchem [7] = conditions: 37 °C, thermodynamic from solid
Experimental: as §2

[8] = Equilibration with solvents; format: physicochemical
Experimental: Obtained suspensions were filtered through a 0.45 μm nylon membrane filter by centrifugation at 14,000 rpm. Solid parts (wet cakes) were investigated by XRPD. For samples with different XRPD patterns, additional analysis including DSC, TGA, ^1H-NMR were performed.
(§1) Obtained suspensions were filtered through a 0.45 μm nylon membrane filter by centrifugation at 14,000 rpm.
as §1

[9] = Solid state
Experimental: Bulk stability of Form P was evaluated at 25° C./92% RH in an open container, at 40° C./75% RH in an open container and at 60° C. in a tight container over 1 week, 2 weeks and 4 weeks. […] Samples after the stress were characterized by XRPD and HPLC and inspected for color change. Form P was also stressed under visible light for 1.2 million lux-hrs. at 25° C. Samples after the stress were characterized by XRPD and HPLC and inspected for color change.

[10] = pH 1.2 HCl buffer (0.1N), 37° C.
[11] = pH 3 citrate buffer (50 mM), 37° C.
[12] = pH 5 acetate buffer (50 mM), 37° C.
[13] = pH 7 phosphate buffer (50 mM), 37° C.
[14] = 25° C./92.5% RH, open container, 1 week
[15] = 25° C./92.5% RH, open container, 2 weeks
[16] = 25° C./92.5% RH, open container, 4 weeks
[17] = 40° C./75% RH, open container, 1 week
[18] = 40° C./75% RH, open container, 2 weeks
[19] = 40° C./75% RH, open container, 4 weeks
[20] = 60° C., tight container, 1 week
[21] = 60° C., tight container, 2 weeks
[22] = 60° C., tight container, 4 weeks
[23] = photo (visible light, closed, 1.2 million lux-hrs at 25° C.), clear vial
[24] = photo (visible light, closed, 1.2 million lux-hrs at 25° C.), wrapped with aluminum foil

Cc1nc(-c2c[nH]c3c(C#N)cccc23)cnc1OCC(C)(C)O [Form P, 3-(5-(2-hydroxy-2-methylpropoxy)-6-methylpyrazin-2-yl)-1H-indole-7-carbonitrile]
1.1: pH [4, 10]
7.7: pH ([4]; Water, 37° C.)
~60%: Purity, Bulk, clear vial (HPLC) [9, 23]
converted to Form R: Form after heating [6]
2.9 µg/mL: solubility at 24 h (physchem [7]; pH 3, aqueous buffer)
100%: Purity after holding ([3]; 40° C., 22 h) | Purity after holding ([3]; 40° C., 4 d) | Purity after holding ([3]; 50° C., 22 h) | Purity after holding ([3]; 50° C., 4 d) | Purity after holding ([3]; 60° C., 22 h) | Purity after holding ([3]; 60° C., 4 d) | Purity after holding ([5]; 40° C., 22 h) | Purity after holding ([5]; 40° C., 4 d) | Purity after holding ([5]; 50° C., 22 h) | Purity after holding ([5]; 50° C., 4 d) | Purity after holding ([5]; 60° C., 22 h) | Purity after holding ([5]; 60° C., 4 d) | Purity, Bulk (HPLC) [9, 14] | Purity, Bulk (HPLC) [9, 15] | Purity, Bulk (HPLC) [9, 16] | Purity, Bulk (HPLC) [9, 17] | Purity, Bulk (HPLC) [9, 18] | Purity, Bulk (HPLC) [9, 19] | Purity, Bulk (HPLC) [9, 21] | Purity, Bulk (HPLC) [9, 22] | Purity, Bulk, wrapped with aluminum foil (HPLC) [9, 24]
111 µg/mL: solubility at 24 h (physchem [7]; pH 5, fessif)
medium discoloration: Color [9, 23]
6.4: pH ([4]; FaSSIF-v1, pH 6.5, 37° C.)
No obvious change in crystallinity: Comments (crystallinity) ([2]; 1 min) | Comments (crystallinity) ([2]; 3 min) | Comments (crystallinity) ([2]; 5 min)
No form change: Bulk (XRPD) [9, 14] | Bulk (XRPD) [9, 15] | Bulk (XRPD) [9, 16] | Bulk (XRPD) [9, 17] | Bulk (XRPD) [9, 18] | Bulk (XRPD) [9, 19] | Bulk (XRPD) [9, 20] | Bulk (XRPD) [9, 21] | Bulk (XRPD) [9, 22] | Bulk, clear vial (XRPD) [9, 23]
2.7 µg/mL: solubility at 24 h (physchem [7]; water)
2.3 µg/mL: solubility at 24 h (physchem [7]; pH 5, aqueous buffer)
99.9%: Purity, Bulk (HPLC) [9, 20]
Form Q: XRPD after equilibration ([8]; NMP, 25° C., 2 weeks)
Form P + one additional peak (It: XRPD [4, 12]
1.5: pH ([4]; FaSSGF, pH 1.6, 37° C.)
5.1 µg/mL: solubility at 24 h (physchem [7]; pH 1.6, fassgf or other biorelevant)
6.9: pH [4, 13]
< 5000 µg/mL: solubility (physchem [1]; 25 °C) | solubility (physchem [1]; 50 °C)
Purity: 100%: Purity after holding ([3]; 0 h) | Purity after holding ([5]; 0 h)
Form P: XRPD ([2]; 1 min) | XRPD ([2]; 3 min) | XRPD ([2]; 5 min) | XRPD ([4]; FaSSGF, pH 1.6, 37° C.) | XRPD ([4]; FaSSIF-v1, pH 6.5, 37° C.) | XRPD ([4]; FeSSIF-v1, pH 5.0, 37° C.) | XRPD ([4]; Water, 37° C.) | XRPD [4, 10] | XRPD [4, 11] | XRPD [4, 13] | XRPD after equilibration ([8]; 2-MeTHF, 25° C., 2 weeks) | XRPD after equilibration ([8]; 2-MeTHF, 50° C., 1 week) | XRPD after equilibration ([8]; 2-MeTHF/heptane (v:v = 1:1), 25° C., 2 weeks) | XRPD after equilibration ([8]; 2-MeTHF/heptane (v:v = 1:1), 50° C., 1 week) | XRPD after equilibration ([8]; 2-MeTHF/heptane (v:v = 3:1), 25° C., 2 weeks) | XRPD after equilibration ([8]; 2-MeTHF/heptane (v:v = 3:1), 50° C., 1 week) | XRPD after equilibration ([8]; 2-Propanol, 25° C., 2 weeks) | XRPD after equilibration ([8]; 2-Propanol, 50° C., 1 week) | XRPD after equilibration ([8]; Acetone, 25° C., 2 weeks) | XRPD after equilibration ([8]; Acetone, 50° C., 1 week) | XRPD after equilibration ([8]; Acetone/water (v:v = 30:70) a.w. = 0.92, 50° C., 1 week) | XRPD after equilibration ([8]; Acetonitrile, 25° C., 2 weeks) | XRPD after equilibration ([8]; Acetonitrile, 50° C., 1 week) | XRPD after equilibration ([8]; DMSO/water (v:v = 40:60) a.w. = 0.77, 50° C., 1 week) | XRPD after equilibration ([8]; Ethanol, 25° C., 2 weeks) | XRPD after equilibration ([8]; Ethanol, 50° C., 1 week) | XRPD after equilibration ([8]; Ethanol/water (v:v = 40:60) a.w. = 0.91, 25° C., 2 weeks) | XRPD after equilibration ([8]; Ethanol/water (v:v = 40:60) a.w. = 0.91, 50° C., 1 week) | XRPD after equilibration ([8]; Ethyl acetate, 25° C., 2 weeks) | XRPD after equilibration ([8]; Ethyl acetate, 50° C., 1 week) | XRPD after equilibration ([8]; Heptane, 25° C., 2 weeks) | XRPD after equilibration ([8]; Heptane, 50° C., 1 week) | XRPD after equilibration ([8]; Isopropyl acetate, 25° C., 2 weeks) | XRPD after equilibration ([8]; Isopropyl acetate, 50° C., 1 week) | XRPD after equilibration ([8]; MEK, 25° C., 2 weeks) | XRPD after equilibration ([8]; MEK, 50° C., 1 week) | XRPD after equilibration ([8]; MTBE, 25° C., 2 weeks) | XRPD after equilibration ([8]; MTBE, 50° C., 1 week) | XRPD after equilibration ([8]; Methanol, 50° C., 1 week) | XRPD after equilibration ([8]; THF, 25° C., 2 weeks) | XRPD after equilibration ([8]; Toluene, 25° C., 2 weeks) | XRPD after equilibration ([8]; Toluene, 50° C., 1 week) | XRPD after equilibration ([8]; Water, 25° C., 2 weeks) | XRPD after equilibration ([8]; Water, 50° C., 1 week)
No color change: Color [9, 14] | Color [9, 15] | Color [9, 16] | Color [9, 17] | Color [9, 18] | Color [9, 19] | Color [9, 20] | Color [9, 21] | Color [9, 22] | Color [9, 24]
Form U: XRPD after equilibration ([8]; DMSO, 25° C., 2 weeks)
Form B + Form W: XRPD after equilibration ([8]; Methanol, 25° C., 2 weeks)
4.9: pH ([4]; FeSSIF-v1, pH 5.0, 37° C.) | pH [4, 12]
Clear solution: Comments (appearance) ([8]; DMSO, 50° C., 1 week, (500 mg/mL)) | Comments (appearance) ([8]; NMP, 50° C., 1 week, (500 mg/mL)) | Comments (appearance) ([8]; THF, 50° C., 1 week, (250 mg/mL)) | Comments (appearance) ([8]; THF/water (v:v = 80:20) a.w. = 0.91, 50° C., 1 week, (500 mg/mL))
2.4 µg/mL: solubility at 24 h (physchem [7]; pH 7, aqueous buffer)
3.0: pH [4, 11]
7.2 µg/mL: solubility at 24 h (physchem [7]; pH 1.2, simulated gastric fluid)
20.9 µg/mL: solubility at 24 h (physchem [7]; pH 6.5, fassif)
